Among the data in patent publication US11098052B2, “4-azapodophylotoxins compounds” (Arizona Board of Regents on behalf of Arizona State …, priority 2016, dated 2021) are GI50, IC50 and melting point values, retold here.

Structures are written as SMILES. ≈ marks a conversion by molar mass, not a printed value. Where two headings read alike, the source gives them in different places.

For one series, the system named is MCF-7 (breast). The series can be described thus: Human cancer cell growth inhibition, sulforhodamine B assay, MCF-7. The series is classed as cell-based. Particulars: read-out: Growth Inhibition of Human Cancer Cell Lines (GI50), MCF-7. How it is done:
(§1) Cancer Cell Line Procedures. The human cancer cell growth inhibition data were determined using the standard sulforhodamine B assay of the US National Cancer Institute as previously described.^35 In short, cells in a 5% fetal bovine serum/RPMI1640 medium were inoculated in 96-well plates and incubated for 24 h. Next, serial dilutions of the samples were added. After 48 h, the plates were fixed with trichloroacetic acid, stained with sulforhodamine B, and read with an automated microplate reader. A growth inhibition of 50% (GI50 or the drug concentration causing a 50% reduction in the net protein increase) was determined from optical density data employing Immunosoft® software.
On the technique in general: The SRB assay estimates cell density from bound dye.

A further series concerns NCI-H460 (lung). The experiment in a line: Human cancer cell growth inhibition, sulforhodamine B assay, NCI-H460. Particulars: read-out: Growth Inhibition of Human Cancer Cell Lines (GI50), NCI-H460. The series is classed as cell-based. How it is done: as §1
Series [1] relates to P388 murine lymphocytic leukemia cell line. The experiment in a line: Murine P388 lymphocytic leukemia inhibitory activity. The series is classed as cell-based. The note with it: Mus musculus.
Another series deals with DU-145 (prostate). The experiment in a line: Human cancer cell growth inhibition, sulforhodamine B assay, DU-145. The series is classed as cell-based. Particulars: read-out: Growth Inhibition of Human Cancer Cell Lines (GI50), DU-145. The procedure: as §1
In a further series the test system is BXPC-3 (pancreas). The experiment in a line: Human cancer cell growth inhibition, sulforhodamine B assay, BXPC-3. The note with it: read-out: Growth Inhibition of Human Cancer Cell Lines (GI50), BXPC-3. The series is classed as cell-based. The procedure: as §1
For a further series, the system named is KM20L2 (colon). The series can be described thus: Human cancer cell growth inhibition, sulforhodamine B assay, KM20L2. The note with it: read-out: Growth Inhibition of Human Cancer Cell Lines (GI50), KM20L2. It counts as cell-based. How it is done:
as §1

The test system of another series is SF-268 (CNS). The experiment in a line: Human cancer cell growth inhibition, sulforhodamine B assay, SF-268. It counts as cell-based. Particulars: read-out: Growth Inhibition of Human Cancer Cell Lines (GI50), SF-268. The procedure: as §1
Where [2] appears, read: P388, read-out: Murine P388 Lymphocytic Leukemia Inhibitory Activity (ED50).

The term GI50 denotes the concentration at which growth is held to half of that of the control. As a reminder, the melting point is the temperature, or range, at which the solid turns liquid.

As to `COc1cc(C2C3=C(COC3=O)N(CCN3CCCCC3)c3cc4c(cc32)OCO4)cc(OC)c1OC` (centres unmarked) [Compound 21, 6,7-Methylenedioxy-4-(2-piperidin-1-yl-ethyl)-9-(3,4,5-trimethoxyphenyl)-4,9-dihydro-3H-furo[3,4-b]quinolin-1-one], the melting point was 170 °C (dec.). Further, the concentration for 50% growth inhibition (GI50) in the series with MCF-7 (breast) (MCF7, MCF-7 breast, 48 h, sulforhodamine B) was more than 10 µg/mL. In addition, the GI50 in the series with NCI-H460 (lung) (NCI-H460 lung, 48 h, sulforhodamine B) is more than 10 µg/mL. Moreover, in series [1] (P388 cell line, read-out: Murine P388 Lymphocytic Leukemia Inhibitory Activity (ED50)), the IC50 was determined as 1.7 µg/mL (≈ 3.34 µM). Further, in the series with DU-145 (prostate) (DU-145 prostate, 48 h, sulforhodamine B), the GI50 is more than 10 µg/mL. The GI50 in the series on BXPC-3 (pancreas) (BXPC-3 pancreas, 48 h, sulforhodamine B) was determined as 4.4 µg/mL (≈ 8.65 µM). For the same compound, the GI50 in the series on KM20L2 (colon) (KM-20L2, KM20L2 colon, 48 h, sulforhodamine B) was more than 10 µg/mL. Also, the concentration for 50% growth inhibition (GI50) in the series with SF-268 (CNS) (SF-268 CNS, 48 h, sulforhodamine B) was more than 10 µg/mL.

`COc1cc(C2C3=C(COC3=O)N(CCN3CCOCC3)c3cc4c(cc32)OCO4)cc(OC)c1OC` (centres unmarked) [Compound 22, 6,7-Methylenedioxy-4-(2-morpholin-4-yl-ethyl)-9-(3,4,5-trimethoxyphenyl)-4,9-dihydro-3H-furo[3,4-b]quinolin-1-one] registered a melting point of 186 to 189 °C. For the same compound, in the series with MCF-7 (breast) (MCF7, 48 h), the GI50 amounted to 0.89 µg/mL (≈ 1.74 µM). Moreover, in the series on NCI-H460 (lung) (NCI-H460, 48 h), the GI50 was 3 µg/mL (≈ 5.88 µM). Also, the IC50 in series [1] (setting [2]) was 2.6 µg/mL (≈ 5.09 µM). The GI50 in the series with DU-145 (prostate) (DU-145, 48 h) is 2 µg/mL (≈ 3.92 µM). The 50% growth inhibitory concentration (GI50) in the series on BXPC-3 (pancreas) (BXPC-3, 48 h) was determined as 3.5 µg/mL (≈ 6.86 µM). Besides, the 50% growth inhibitory concentration (GI50) in the series with KM20L2 (colon) (KM-20L2, 48 h) was 2.5 µg/mL (≈ 4.9 µM). In addition, the GI50 in the series on SF-268 (CNS) (SF-268, 48 h) is 2.6 µg/mL (≈ 5.09 µM).

`COc1ccc(C2C3=C(COC3=O)Nc3cc(OC)c(OC)c(OC)c32)cc1O[Si](C)(C)C(C)(C)C` (centres unmarked) returned a melting point of 169 to 171 °C.

With `COc1cc(C2C3=C(COC3=O)N(CCc3ccc(F)cc3)c3cc4c(cc32)OCO4)cc(OC)c1O` (centres unmarked) [Compound 31, 6,7-Methylenedioxy-4-[2-(4-fluorophenyl)-ethyl]-9-(4-hydroxy-3,5-dimethoxy-phenyl)-4,9-dihydro-3H-furo[3,4-b]quinolin-1-one], the GI50 with MCF-7 (breast) (MCF7, 48 h) was 0.34 µg/mL (≈ 0.673 µM); in the series on NCI-H460 (lung) (NCI-H460, 48 h) it was 0.36 µg/mL (≈ 0.712 µM); in the series on DU-145 (prostate) (DU-145, 48 h), 0.38 µg/mL (≈ 0.752 µM); in the series on BXPC-3 (pancreas) (BXPC-3, 48 h), 1.4 µg/mL (≈ 2.77 µM); in the series on SF-268 (CNS) (SF-268, 48 h), 0.48 µg/mL (≈ 0.95 µM). The IC50 in series [1] (setting [2]) stood at 0.21 µg/mL (≈ 0.415 µM).

For `COc1cc(C2C3=C(COC3=O)N(C3CCC3)c3cc4c(cc32)OCO4)cc(OC)c1OC` (centres unmarked) [Compound 17, 6,7-Methylenedioxy-4-(cyclobutyl)-9-(3,4,5-trimethoxyphenyl)-4,9-dihydro-3H-furo[3,4-b]quinolin-1-one], the melting point is 224 to 226 °C. Further, the concentration for 50% growth inhibition (GI50) in the series on MCF-7 (breast) (MCF7, 48 h) is 0.026 µg/mL (≈ 0.0576 µM). Further, the GI50 with NCI-H460 (lung) (NCI-H460, 48 h) turned out to be 0.028 µg/mL (≈ 0.062 µM). In addition, the IC50 in series [1] (setting [2]) was found to be 0.24 µg/mL (≈ 0.532 µM). The GI50 with DU-145 (prostate) (DU-145, 48 h) was 0.047 µg/mL (≈ 0.104 µM). Further, in the series with BXPC-3 (pancreas) (BXPC-3, 48 h), the GI50 worked out at 0.04 µg/mL (≈ 0.0886 µM). Besides, the GI50 in the series on KM20L2 (colon) (KM-20L2, 48 h) amounted to 0.032 µg/mL (≈ 0.0709 µM). In addition, the GI50 with SF-268 (CNS) (SF-268, 48 h) turned out to be 0.026 µg/mL (≈ 0.0576 µM).

Regarding `COc1cc(C2C3=C(COC3=O)N(C)c3cc4c(cc32)OCO4)cc(OC)c1OC` (centres unmarked) [Compound 16, 6,7-Methylenedioxy-4-methyl-9-(3,4,5-trimethoxyphenyl)-4,9-dihydro-3H-furo[3,4-b]quinolin-1-one], the concentration for 50% growth inhibition (GI50) with MCF-7 (breast) (MCF7, 48 h) was found to be 0.034 µg/mL (≈ 0.0826 µM); with NCI-H460 (lung) (NCI-H460, 48 h), 0.032 µg/mL (≈ 0.0778 µM); in the series on DU-145 (prostate) (DU-145, 48 h) it was 0.026 µg/mL (≈ 0.0632 µM); in the series with BXPC-3 (pancreas) (BXPC-3, 48 h), 0.049 µg/mL (≈ 0.119 µM); in the series on KM20L2 (colon) (KM-20L2, 48 h) it was 0.032 µg/mL (≈ 0.0778 µM); with SF-268 (CNS) (SF-268, 48 h) it was 0.029 µg/mL (≈ 0.0705 µM). The IC50 in series [1] (setting [2]) stood at 0.027 µg/mL (≈ 0.0656 µM).

As for `COc1cc(C2C3=C(COC3=O)N(CCc3ccc([N+](=O)[O-])cc3)c3cc4c(cc32)OCO4)cc(OC)c1OC` (centres unmarked) [Compound 27, 6,7-Methylenedioxy-4-[2-(4-nitrophenyl)-ethyl]-9-(3,4,5-trimethoxyphenyl)-4,9-dihydro-3H-furo[3,4-b]quinolin-1-one], the melting point is 188 to 190 °C. In addition, the concentration for 50% growth inhibition (GI50) with MCF-7 (breast) (MCF7, 48 h) is 0.08 µg/mL (≈ 0.146 µM). In the series with NCI-H460 (lung) (NCI-H460, 48 h), the GI50 was 0.3 µg/mL (≈ 0.549 µM). The IC50 in series [1] (setting [2]) turned out to be 34.8 µg/mL (≈ 63.7 µM). For the same compound, the GI50 with DU-145 (prostate) (DU-145, 48 h) came to 0.3 µg/mL (≈ 0.549 µM). The concentration for 50% growth inhibition (GI50) in the series with BXPC-3 (pancreas) (BXPC-3, 48 h) was determined as 0.39 µg/mL (≈ 0.714 µM). For the same compound, the 50% growth inhibitory concentration (GI50) in the series on KM20L2 (colon) (KM-20L2, 48 h) was 0.26 µg/mL (≈ 0.476 µM). The GI50 in the series on SF-268 (CNS) (SF-268, 48 h) worked out at 0.2 µg/mL (≈ 0.366 µM).

Take `COc1cc(C2C3=C(COC3=O)N(C3CCCC3)c3cc4c(cc32)OCO4)cc(OC)c1O` (centres unmarked) [Compound 30, 6,7-Methylenedioxy-4-(cyclopentyl)-9-(4-hydroxy-3,5-dimethoxy-phenyl)-4,9-dihydro-3H-furo[3,4-b]quinolin-1-one]: the 50% growth inhibitory concentration (GI50) came to 0.32 µg/mL (≈ 0.709 µM) with MCF-7 (breast) (MCF7, 48 h); 0.33 µg/mL (≈ 0.731 µM) with NCI-H460 (lung) (NCI-H460, 48 h); 0.41 µg/mL (≈ 0.908 µM) in the series on DU-145 (prostate) (DU-145, 48 h); 0.53 µg/mL (≈ 1.17 µM) in the series with BXPC-3 (pancreas) (BXPC-3, 48 h); 2.1 µg/mL (≈ 4.65 µM) in the series with KM20L2 (colon) (KM-20L2, 48 h); 0.39 µg/mL (≈ 0.864 µM) in the series on SF-268 (CNS) (SF-268, 48 h). For the same compound, in series [1] (setting [2]), the IC50 turned out to be 30.3 µg/mL (≈ 67.1 µM).
